Assay: Photochromic response of test square polymerizates on an optical bench
Assay type: physicochemical
Details: for ΔOD@ SATURATION: UV exposure continued for 20 minutes; for ΔOD@ SATURATION / ΔOD/MIN SENSITIVITY: test squares by method 1, 75°F (23.9°C); for ΔOD/MIN SENSITIVITY: measured over the first five (5) seconds of UV exposure, expressed on a per minute basis; for Bleach (T1/2): time for absorbance of the activated form to reach one half the highest absorbance at room temperature (75°F, 23.9°C) after removal of activating light, method 1; for LAMBDA MAX (VISIBLE): wavelength in the visible spectrum of maximum absorption of the activated (colored) form, diethylene glycol bis(allyl carbonate) composition
Description: Testing was done with the photochromic naphthopyrans of the Examples incorporated or imbibed into test square polymerizates by one of two different methods. In Method I, the photochromic naphthopyrans of the Examples were incorporated into polymeric samples. The quantity of naphthopyran calculated to yield a 1.5 times 10^-3 molal solution was added to a flask containing 50 grams of a monomer blend of 4 parts ethoxylated bisphenol A dimethacrylate (BPA 2EO DMA), 1 part poly(ethyleneglycol) 600 dimethacrylate, and 0.033 weight percent 2,2'-azobis(2-methyl propionitrile) (AIBN). The naphthopyrans were dissolved into the monomer blend by stirring and gentle heating, if necessary. After a clear solution was obtained, it was poured into a flat sheet mold having the interior dimensions of 2.2 mm x 6 inches (15.24 cm) x 6 inches (15.24 cm). The mold was sealed and placed in a horizontal air flow, programmable oven set to increase the temperature from 40°C. to 95°C. over a 5 hour interval, hold the temperature at 95°C. for 3 hours and then lower it to 60°C. for at least 2 hours before the end of the curing cycle. After the molds were opened, the polymer sheets were cut using a diamond blade saw into 2 inch (5.1 centimeters) test squares.
In Method II, the photochromic naphthopyran was imbibed into test square polymerizates prepared from a diethylene glycol bis(allyl carbonate) composition. The test squares measured 1/8 inch (0.3 centimeters) x 2 inches (5.1 centimeters) x 2 inches (5.1 centimeters). In the imbibition process, the photochromic naphthopyran was dissolved to form a 10 weight percent solution in a 1:9 mixture of ethyl cellulose:toluene. The solution was then spin coated onto the test squares and allowed to dry. Samples were then heated in a hot-air oven at 135-155°C for a period of time sufficient to thermally transfer the photochromic into the test squares. […] After cooling, the ethyl cellulose/toluene resin film was removed from the test squares by washing with acetone.
The photochromic test squares were tested for photochromic response rates on an optical bench. Prior to testing on the optical bench, the photochromic test squares were exposed to 365 nanometer ultraviolet light for about 15 minutes to activate the photochromic compounds and then placed into a 76°C oven for about 15 minutes to bleach or inactivate the photochromic compounds. The test squares were then cooled to room temperature, exposed to fluorescent room lighting for at least 2 hours and then kept covered for at least 2 hours prior to testing on an optical bench maintained at 75°F (23.9°C). The bench was fitted with a 150 watt Xenon arc lamp, a remote controlled shutter, a copper sulfate bath acting as a heat sink for the arc lamp, a Schott WG-320 nm cut-off filter which removes short wavelength radiation; neutral density filter(s) and a sample holder in which the square to be tested was inserted. A collimated beam of light from a tungsten lamp was passed through the square at a small angle normal to the square. After passing through the square, the light from the tungsten lamp was directed through a photopic filter attached to a detector. The photopic filter passes wavelengths such that the detector mimics the response of the human eye. The output signals from the detector(s) were processed by a radiometer.
Change in optical density (ΔOD) was determined by inserting a test square in the bleached state into the sample holder, adjusting the transmittance scale to 100%, opening the shutter from the Xenon lamp to provide ultraviolet radiation to change the test square from the bleached state to an activated (i.e., darkened) state, measuring the transmittance in the activated state, and calculating the change in optical density according to the formula Δ OD=log(100/%Ta) where %Ta is the percent transmittance in the activated state and the logarithm is to the base 10. […]

Compound	ΔOD@ SATURATION	ΔOD/MIN SENSITIVITY	Bleach (T1/2)	LAMBDA MAX (VISIBLE)
COC(=O)c1c2c(c3ccccc3c1O)OC(c1ccccc1)(c1ccc(N3CCOCC3)cc1)C=C2 (stereo not drawn) [Example 1, 2-(4-morpholinophenyl)-2-phenyl-5-methoxycarbonyl-6-hydroxy-2H-naphtho[1,2-b]pyran]	1.36	0.64	3.22 min	511
COC(=O)c1c2c(c3ccccc3c1OC)OC(c1ccccc1)(c1ccc(N3CCOCC3)cc1)C=C2 (stereo not drawn) [Example 2, 2-(4-morpholinophenyl)-2-phenyl-5-methoxycarbonyl-6-methoxy-2H-naphtho[1,2-b]pyran]	0.95	0.29	4.87 min	541
COC(=O)c1c2c(c3ccccc3c1OC(C)=O)OC(c1ccccc1)(c1ccc(N3CCOCC3)cc1)C=C2 (stereo not drawn) [Example 3, 2-(4-morpholinophenyl)-2-phenyl-5-methoxycarbonyl-6-acetoxy-2H-naphtho[1,2-b]pyran]	0.31	0.24	1.47 min	545
COC(=O)c1c2c(c3ccccc3c1OC(C)=O)OC(c1ccccc1)(c1ccc(N(C)C)cc1)C=C2 (stereo not drawn) [Example 4, 2-(4-dimethylaminophenyl)-2-phenyl-5-methoxycarbonyl-6-acetoxy-2H-naphtho[1,2-b]pyran]	0.30	0.27	1.17 min	591
COC(=O)c1c2c(c3ccccc3c1C)OC(c1ccccc1)(c1ccc(N(C)C)cc1)C=C2 (stereo not drawn) [Example 5, 2-(4-dimethylaminophenyl)-2-phenyl-5-methoxycarbonyl-6-methyl-2H-naphtho[1,2-b]pyran]	0.51	0.20	3.33 min	584
COC(=O)c1c2c(c3ccccc3c1OC(C)=O)OC(c1ccc(N(C)C)cc1)(c1ccc(N(C)C)cc1)C=C2 [Example 6, 2,2-bis(4-dimethylaminophenyl)-5-methoxycarbonyl-6-acetoxy-2H-naphtho[1,2-b]pyran]	0.07	0.16	0.317 min	618
